The values below come from the supplement of paper PMC10307832.

Holding throughout (test): relative viability (nuclei count vs DMSO), 5 days (fraction); higher = more cells survive
Compound in the test “QS11 + Pictilisib”: C1CC2=C(C1)C=C(C=C2)OC3=NC(=C4C(=N3)N(C=N4)CC5=CC=C(C=C5)C6=CC=CC=C6)N[C@@H](CC7=CC=CC=C7)CO [QS11] + CS(=O)(=O)N1CCN(Cc2cc3nc(-c4cccc5[nH]ncc45)nc(N4CCOCC4)c3s2)CC1 [Pictilisib] (partner 1 µM)
Put shortly: (§1)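 Relative viability equals treated-well nuclei counts divided by vehicle-well nuclei counts. Counts came from 4× images of lung cancer cell lines grown in 1536-well plates for 5 days after pin-tool dosing on the day after seeding. Dosing used one drug alone or a fixed anchor-drug dose plus five library-drug doses (not always all listed) in √10 steps, and values are medians of duplicate plates.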

Compound in test [1]: C[As](C)SC[C@H](NC(=O)CC[C@H](N)C(=O)O)C(=O)NCC(=O)O [Darinaparsin] + CC(C)C[C@H](NC(=O)[C@H](Cc1ccccc1)NC(=O)c1cnccn1)B(O)O [Bortezomib] (partner 0.002 µM)
Put shortly: as §1

Compound in test [2]: C[As](C)SC[C@H](NC(=O)CC[C@H](N)C(=O)O)C(=O)NCC(=O)O [Darinaparsin] + N=C(N)NC(=N)NCCc1ccccc1 [Phenformin] (partner 250 µM)
Put shortly:
as §1

Compound in the test “Darinaparsin + Olaparib”: C[As](C)SC[C@H](NC(=O)CC[C@H](N)C(=O)O)C(=O)NCC(=O)O [Darinaparsin] + O=C(c1cc(Cc2n[nH]c(=O)c3ccccc23)ccc1F)N1CCN(C(=O)C2CC2)CC1 [Olaparib] (partner 8 µM)
Put shortly:
as §1

For the cell line LCLC-97TM1, the relative viability was found to be 0.14 with QS11 + Pictilisib (first compound 0.08 µM); 0.193 with QS11 + Pictilisib (first compound 0.253 µM); 0.209 in the test with QS11 + Pictilisib (first compound 0.8 µM); 0.302 with QS11 + Pictilisib (first compound 2.53 µM); 0.289 in the test with QS11 + Pictilisib (first compound 8 µM); 0.765 in test [1] (first compound 0.08 µM). For the same cell line, the relative viability in test [1] (first compound 0.8 µM) is 0.513; in test [1] (first compound 2.53 µM), 0.416; in test [1] (first compound 8 µM) it was 0.481; in test [2] (first compound 0.08 µM), 0.417; in test [2] (first compound 0.8 µM), 0.412; in test [2] (first compound 2.53 µM) it was 0.444. For the same cell line, the relative viability in test [2] (first compound 8 µM) is 0.302; with Darinaparsin + Olaparib (first compound 0.08 µM), 0.599; with Darinaparsin + Olaparib (first compound 0.8 µM), 0.303; with Darinaparsin + Olaparib (first compound 2.53 µM), 0.404; in the test with Darinaparsin + Olaparib (first compound 8 µM), 0.612.
